Assay [1] has as its target T1, human recombinant histamine H2 receptor (Homo sapiens, UniProt P25021).
T1 construct: expressed in transfected cells; host or cells: CHO-K1 cells
Put plainly: Histamine H2 radioligand binding ([125I]aminopotentidine). As to conditions: compound at 1 μM; CHO K1 cells; read-out: Histamine Binding (1 μM) H2, percent inhibition of specific binding. On the procedure: To evaluate in radioligand binding assays the activity of compounds of the invention, human recombinant histamine H2 receptor expressed in Chinese hamster ovary (CHO) K1 cells (Ruat, M., Proc. Natl. Acad. Sci. USA. 87(5):1658, 1990) in a 50 mM Phosphate buffer, pH 7.4 was used. Compounds of the invention were incubated with 0.1 nM [^125I]aminopotentidine for 120 minutes at 25° C. Non-specific binding was estimated in the presence of 3 μM Tiotidine. Receptor proteins were filtered and washed, the filters were then counted to determine [^125I]Aminopotentidine specifically bound. Compounds were screened at 1 μM, using 1% DMSO as vehicle. Biochemical assay results are presented as the percent inhibition of specific binding in Table 5.

In assay [2] the target is T2, human recombinant adrenergic α2A receptor (Homo sapiens, UniProt P08913).
T2 construct: expressed in transfected cells; host or cells: insect Sf9 cells
T2 sequence (P08913 1-465): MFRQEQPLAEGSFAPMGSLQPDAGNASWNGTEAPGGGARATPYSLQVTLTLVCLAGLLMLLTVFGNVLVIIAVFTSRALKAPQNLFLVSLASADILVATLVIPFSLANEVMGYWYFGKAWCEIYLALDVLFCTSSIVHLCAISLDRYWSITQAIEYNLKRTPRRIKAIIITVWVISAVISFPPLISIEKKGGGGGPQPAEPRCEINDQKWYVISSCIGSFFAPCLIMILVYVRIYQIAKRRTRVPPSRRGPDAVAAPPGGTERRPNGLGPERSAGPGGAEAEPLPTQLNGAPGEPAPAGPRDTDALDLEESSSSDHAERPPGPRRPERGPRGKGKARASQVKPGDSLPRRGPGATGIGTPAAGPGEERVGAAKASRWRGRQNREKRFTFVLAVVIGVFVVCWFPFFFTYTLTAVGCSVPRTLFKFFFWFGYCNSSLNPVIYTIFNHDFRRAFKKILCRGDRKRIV
In words: Adrenergic α2A radioligand binding ([3H]MK-912). As to conditions: compound at 1 μM; insect Sf9 cells; read-out: Adrenergic (1 μM) α2A, percent inhibition of specific binding. As for the experimental part: To evaluate in radioligand binding assays the activity of compounds of the invention, human recombinant adrenergic α2A receptor expressed in insect Sf9 cells (Uhlen S et al. J Pharmacol Exp Ther. 271:1558, 1994) in a modified Tris-HCl buffer (50 mM Tris-HCl, pH 7.4, 12.5 mM MgCl2, 2 mM EDTA) was used. Compounds of invention were incubated with 1 nM [^3H]MK-912 for 60 minutes at 25° C. MK912 is (2S-trans)-1,3,4,5′,6,6′,7,12b-octahydro-1′,3′-dimethyl-spiro[2H-benzofuro[2,3-a]quinolizine-2,4′(1′H)-pyrimidin]-2′(3′H)-one hydrochloride Non-specific binding was estimated in the presence of 10 μM WB-4101 (2-(2,6-Dimethoxyphenoxyethyl)aminomethyl-1,4-benzodioxane hydrochloride). Receptor proteins were filtered and washed, the filters were then counted to determine [^3H]MK-912 specifically bound. Compounds were screened at 1 μM or lower, using 1% DMSO as vehicle. Biochemical assay results are presented as the percent inhibition of specific binding in Table 6.

Assay [3] addresses T3, human recombinant serotonin (5-Hydroxytryptamine) 5-HT2C receptor (Homo sapiens, UniProt P28335).
T3 construct: expressed in transfected cells; host or cells: CHO-K1 cells
T3 sequence (P28335 33-458): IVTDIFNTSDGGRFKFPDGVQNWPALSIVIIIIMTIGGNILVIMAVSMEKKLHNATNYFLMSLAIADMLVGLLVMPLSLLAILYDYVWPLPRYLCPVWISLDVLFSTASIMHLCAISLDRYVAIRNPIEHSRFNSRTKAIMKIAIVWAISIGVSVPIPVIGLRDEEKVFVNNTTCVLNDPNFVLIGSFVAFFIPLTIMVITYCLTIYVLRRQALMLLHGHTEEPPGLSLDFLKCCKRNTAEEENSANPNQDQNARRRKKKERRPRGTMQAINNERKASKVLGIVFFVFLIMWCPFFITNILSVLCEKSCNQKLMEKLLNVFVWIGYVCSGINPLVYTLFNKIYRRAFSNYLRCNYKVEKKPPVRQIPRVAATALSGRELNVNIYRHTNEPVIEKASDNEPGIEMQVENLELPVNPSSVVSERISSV
Put plainly: Serotonin 5-HT2C radioligand binding ([3H]Mesulergine). As to conditions: compound at 1 μM; CHO-K1 cells; read-out: Serotonin (1 μM) 5-HT2C, percent inhibition of specific binding. On the procedure: To evaluate in radioligand binding assays the activity of compounds of the invention, human recombinant serotonin (5-Hydroxytryptamine) 5-HT2C receptor expressed in Chinese hamster ovary (CHO-K1) cells (Wolf, W. A. and Schutz, J. S., J. Neurochem. 69:1449, 1997) in a modified Tris-HCl buffer (50 mM Tris-HCl, pH 7.4, 0.1% Ascorbic Acid, 10 μM Pargyline) was used. Compounds of the invention were incubated with 1 nM [^3H]Mesulergine for 60 minutes at 25° C. Non-specific binding was estimated in the presence of 1 μM Mianserin. Receptor proteins were filtered and washed, the filters were then counted to determine [^3H]Mesulergine specifically bound. Compounds were screened at 1 μM or lower, using 1% DMSO as vehicle. Biochemical assay results are presented as the percent inhibition of specific binding in Table 7.

Assay [4] addresses T4, human recombinant serotonin (5-Hydroxytryptamine) 5-HT6 receptor (Homo sapiens, UniProt P50406).
T4 construct: expressed in transfected cells; host or cells: human HeLa cells
In words: Serotonin 5-HT6 radioligand binding ([3H]LSD). As to conditions: compound at 1 μM; HeLa cells; read-out: Serotonin (1 μM) 5-HT6, percent inhibition of specific binding. As for the experimental part:
To evaluate in radioligand binding assays the activity of compounds of the invention, human recombinant serotonin (5-Hydroxytryptamine) 5-HT6 receptor expressed in human HeLa cells (Monsma, F. J. Jr. et al., Mol. Pharmacol. 43:320, 1993) in a modified Tris-HCl buffer (50 mM Tris-HCl, pH 7.4, 150 mM NaCl, 2 mM Ascorbic Acid, 0.001% BSA) was used. Compounds of the invention were incubated with 1.5 nM [3H]Lysergic acid diethylamide (LSD) for 120 minutes at 37° C. Non-specific binding was estimated in the presence of 5 μM Serotonin (5-HT). Receptor proteins were filtered and washed, the filters were then counted to determine [3H]LSD specifically bound. Compounds were screened at 1 μM or lower, using 1% DMSO as vehicle. Biochemical assay results are presented as the percent inhibition of specific binding in Table 7.

T4 sequence (P50406 whole entry): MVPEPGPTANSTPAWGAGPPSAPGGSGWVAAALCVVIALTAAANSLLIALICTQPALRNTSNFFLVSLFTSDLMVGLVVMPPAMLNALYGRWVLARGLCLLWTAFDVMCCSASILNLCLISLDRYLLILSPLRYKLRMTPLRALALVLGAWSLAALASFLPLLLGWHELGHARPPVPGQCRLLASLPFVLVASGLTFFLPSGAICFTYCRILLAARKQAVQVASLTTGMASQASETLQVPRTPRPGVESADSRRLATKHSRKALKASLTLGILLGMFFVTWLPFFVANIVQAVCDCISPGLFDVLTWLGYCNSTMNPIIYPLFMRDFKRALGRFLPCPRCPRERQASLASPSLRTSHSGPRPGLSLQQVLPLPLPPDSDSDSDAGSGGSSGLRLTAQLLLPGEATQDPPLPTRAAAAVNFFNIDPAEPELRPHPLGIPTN
T1 sequence (P25021 whole entry): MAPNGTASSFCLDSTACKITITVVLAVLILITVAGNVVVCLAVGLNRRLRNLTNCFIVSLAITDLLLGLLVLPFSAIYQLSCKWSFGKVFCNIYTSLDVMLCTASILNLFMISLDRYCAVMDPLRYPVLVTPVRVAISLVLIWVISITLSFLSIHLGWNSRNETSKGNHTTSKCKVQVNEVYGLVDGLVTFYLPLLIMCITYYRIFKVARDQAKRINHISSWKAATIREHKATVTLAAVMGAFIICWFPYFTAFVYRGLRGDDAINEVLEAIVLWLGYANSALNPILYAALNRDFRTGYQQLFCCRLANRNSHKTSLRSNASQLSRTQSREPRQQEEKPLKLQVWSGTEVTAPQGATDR

One may read the inhibition as the drop in the measured response relative to a control, in per cent. As for `Cc1ccc2c(c1)c1c(n2CCC(=O)Nc2ccc(F)cc2)CCN(C)C1` [Compound 47, N-(4-fluorophenyl)-3-(1,2,3,4-tetrahydro-2,8-dimethylpyrido[4,3-b]indol-5-yl)propanamide], the inhibition at 1 µM was found to be 53% in assay [1], 73% in assay [2], 90% in assay [3] and 63% in assay [4].

On to `CN1CCc2c(c3cc(Cl)ccc3n2CCC(=O)OC2CCCC2)C1` [Compound 21, cyclopentyl 3-(8-chloro-1,2,3,4-tetrahydro-2-methylpyrido[4,3-b]indol-5-yl)propanoate], for which the inhibition at 1 µM is 82% in assay [1], 95% in assay [2], 100% in assay [3] and 100% in assay [4].

As for `CN1CCc2c(c3cc(Cl)ccc3n2CC(=O)OCc2ccccc2)C1` [Compound 13, benzyl 2-(8-chloro-1,2,3,4-tetrahydro-2-methylpyrido[4,3-b]indol-5-yl)acetate], the inhibition at 1 µM in assay [1] is 51%; in assay [2], 73%; in assay [3], 91%; in assay [4], 101%.

Regarding `Cc1ccc2c(c1)c1c(n2CC#N)CCN(C)C1` [CD61, 2-(1,2,3,4-tetrahydro-2,8-dimethylpyrido[4,3-b]indol-5-yl)acetonitrile], the inhibition at 1 µM stood at 15% in assay [1], 73% in assay [2], 73% in assay [3] and 68% in assay [4].

Take `CN1CCc2c(c3cc(Cl)ccc3n2CC(=O)NC2CCCCC2)C1` [Compound 60, 2-(8-chloro-1,2,3,4-tetrahydro-2-methylpyrido[4,3-b]indol-5-yl)-N-cyclohexylacetamide]: the inhibition at 1 µM in assay [1] amounted to 3%; in assay [2], 23%; in assay [3] it was 35%; in assay [4], 22%.

As for `Cc1ccc2c(c1)c1c(n2CCNC(=O)c2ccc(F)cc2)CCN(C)C1` [Compound 66, 4-fluoro-N-(2-(1,2,3,4-tetrahydro-2,8-dimethylpyrido[4,3-b]indol-5-yl)ethyl)benzamide], the inhibition at 1 µM in assay [1] was 49%; in assay [2], 70%; in assay [3] it was 93%; in assay [4], 35%.

As for `CN1CCc2c(c3cc(Cl)ccc3n2CCC(=O)OCC2CCCCC2)C1` [Compound 20, cyclohexylmethyl 3-(8-chloro-1,2,3,4-tetrahydro-2-methylpyrido[4,3-b]indol-5-yl)propanoate], the inhibition at 1 µM in assay [1] is 93%; in assay [2] it was 95%; in assay [3], 88%; in assay [4], 93%.

For the molecule `CN1CCc2c(c3cc(Cl)ccc3n2CCC(=O)O)C1` [CD55, 3-(8-chloro-1,2,3,4-tetrahydro-2-methylpyrido[4,3-b]indol-5-yl)propanoic acid], the inhibition at 1 µM was -2% in assay [1], -2% in assay [2], 11% in assay [3] and -3% in assay [4].

On to `Cc1ccc2c(c1)c1c(n2CC(=O)NCC2CCCCC2)CCN(C)C1` [Compound 26, N-(cyclohexylmethyl)-2-(1,2,3,4-tetrahydro-2,8-dimethylpyrido[4,3-b]indol-5-yl)acetamide], for which the inhibition at 1 µM was 22% in assay [1], 22% in assay [2], 54% in assay [3] and 34% in assay [4].

Turning to `CC(C)OC(=O)Cn1c2c(c3cc(Cl)ccc31)CN(C)CC2` [Compound 11, isopropyl 2-(8-chloro-1,2,3,4-tetrahydro-2-methylpyrido[4,3-b]indol-5-yl)acetate], the inhibition at 1 µM in assay [1] turned out to be 7%; in assay [2], 25%; in assay [3] it was 71%; in assay [4] it was 66%.

Source of the values: patent US9115137B2, “2,3,4,5-tetrahydro-1H-pyrido[4,3-B]indole compounds and methods of use thereof” (priority 2008, dated 2015).
